In patent US20090181904A1, “METHOD FOR REGULATING NUTRIENT ABSORPTION WITH GINSENOSIDES” (priority 2005, published 2009):

Assays:
Type in all cases: cell-based, human
Caco-2 cell monolayer = test: Arginine absorption assay (transport across Caco-2 monolayer, 3H-arginine); details: for Transport rate (arginine): 10 mM L-arginine
Method: In measuring transport of arginine across the Caco-2 cell monolayer, both sides of the transwells were washed with arginine incubation buffer consisting of: 137 mM NaCl, 10 mM Hepes, 0.3 mM NaH2PO4, 0.3 mM K2HPO4, 5.4 mM KCl, 2.8 mM CaCl2, 1 mM MgSO4, 10 mM glucose, adjusted to pH 7.4. Then, the cell layer was pre-incubated in the incubation buffer at 37° C. for 1 h. The volumes of incubation buffer were 0.2 mL and 0.9 mL in the apical and basolateral chambers, respectively. The cells were replaced with fresh incubation medium in both chambers prior to the transport experiment. The transport experiment was initiated by replacing the incubation solution on the apical side with solution containing 10 mM of L-arginine in which 0.125 μCi/mL of L-[^3H]-arginine was included. At designated time intervals, 10 μL-solution samples were removed from the basolateral side and radioactivity of each sample was counted using a microplate liquid scintillation counter (TopCount, Packard NXT). During the experiment, when a 10 μL-solution sample was removed from the basolateral side every time, 10 μL buffer was supplemented to keep the volume constant. The uptake of [^3H]-mannitol was used to correct for nonspecific transport of molecules across the monolayer membrane. Results were expressed as the nanomoles of arginine transport across the Caco-2 cell monolayers with respect to time in minutes (nmol/min).

Caco2 cell monolayer = test: Glucose absorption assay (transport across Caco2 monolayer in transwell, 14C-glucose); details: for Transport rate (glucose): 2 days pretreatment, 25 mM glucose
Method: For glucose absorption assay, 0.3 mL (10^5 cell/ml) of Caco2 cells were seeded into the apical chamber of each transwell and the basolateral chamber was added with 1 ml of culture medium (as indicated above). Costar transwell inserts (No. 3414, Corning Incorporated, NY, USA) separate each well in 24-well plates into an apical chamber (defined as a chamber above the insert) and a basolateral chamber (defined as a chamber below the insert). The culture medium in each transwell was changed every 2 days in both of the apical and basolateral chambers. To ensure the integrity of tight junction of Caco2 monolayer membrane formed in the transwell, a Trans-Epithelial Electrical Resistance (TEER) assay was conducted using Millicell®-ERS (Millipore EVOM-6; World Precision Instrument, Sarasota, Fla., USA) to measure the TEER between apical and basolateral chambers of the transwell. As the measured TEER reached 300 to 450 Ωcm^2 with the presence of differentiated brush border on the […] side of the cell on the 14th to 21st day of the culture, the Caco2 monolayer was ready for the glucose absorption test. The TEER values were taken before, during, and after each experiment to justify consistency of the data collected.
Glucose absorption was initiated by replacing the culture medium in the basolateral chamber with fresh glucose absorption buffer and the culture medium in the apical chamber with 0.2 mL of the glucose absorption buffer containing 2 μCi/ml of radioactive D-[^14C]-glucose (60 Ci/mmol, American Radiolabeled Chemicals, ARC, St. Louis, Mo., USA) and unlabeled cold glucose to give glucose at a final concentration of 25 mM. A series of five 10-μL samples were taken from the basolateral chamber at every 5 or 10 minute intervals. In order to maintain the constant buffer volume, same amount of sample buffer were added back to the basolateral chamber after withdrawn of each sample. The samples were transferred to the filter-bottomed UniFilter plates (Perkin-Elmer, Wellesley, Mass., USA) and dried in a vacuum oven at 37° C. The bottom of the UniFilter plate was sealed and 25 μL of the counting solution were added into each well. Adhesive plate sealers were used in place of the lids and radioactivity of each sample was counted using the microplate liquid scintillation counter (TopCount, Packard NXT, Packard BioScience Company, Meriden, Conn., USA). The effect of test compounds on glucose absorption was expressed as the nmoles of glucose accumulated in the basolateral chamber with respect to time in minutes (nmol/min). The glucose absorption rate was obtained by calculating the slope of the straight line from the time zero to the end point of the graphic data of each figure.

Caco2 cells = test: Folate uptake assay (3H-folate uptake in Caco2 cells); details: compound 0.1 μM; for Transport rate (folate uptake): 2 days pretreatment, 5 μM folate, pH 6.0
Method: The Caco2 cells were subjected to folate uptake test in a manner similar to that described in the glucose uptake assay in Example 1 above. In the folate uptake test, the Caco2 cells were pretreated with the culture medium containing 5% FBS and purified ginsenosides at a concentration of […] for 2 days before the cells were cultured in a folate uptake buffer (Hank's balanced salt solution, supplemented with 0.14 g/L CaCl2, 0.1 g/L MgCl2, and 0.1 g/L MgSO4, pH 6.0) for 1 hour. The buffer was then aspirated, and uptake was initiated by adding 0.2 mL of fresh folate uptake buffer containing 2 μCi/mL radioactive folate (3,5,7,9-^3H-folic acid, 25 mCi/mmol, ARC) and cold, unlabeled folate giving a final folate concentration of 5 μM. Folate uptake was terminated by removing the uptake buffer at designated time intervals. The cells were then washed three times with ice-cold PBS and lysed by adding 0.2 mL of 0.2 N NaOH, followed by incubating at 65° C. for 20 min. Intracellular uptake of ^3H-folate was determined by transferring 20 μL of the cell lysate to the filter-bottomed UniFilter plates (Perkin-Elmer) and counting as described previously in Example 1. The amount of folate accumulated in the cells was calculated and normalized to protein concentration, and uptake rate was expressed as picomoles of folate per minutes per milligram of cell protein (pmol/min/mg). Protein concentration was determined by a standard Bicinchoninic acid (BCA) protein assay as described above.

CC(C)=CCC[C@](C)(O[C@@H]1O[C@H](CO)[C@@H](O)[C@H](O)[C@H]1O)[C@H]1CC[C@]2(C)[C@@H]1[C@H](O)C[C@@H]1[C@@]3(C)CC[C@H](O)C(C)(C)[C@@H]3[C@@H](O)C[C@]12C [GF1, ginsenoside F1]
Percentage (arginine transport, control = 100) (Caco-2 cell monolayer; compound 0.01 μM): 126.74%
Transport rate (arginine) (Caco-2 cell monolayer; compound 0.01 μM): 13.5425 ± 1.8630 nmol/min
Percentage (arginine transport, control = 100) (Caco-2 cell monolayer; compound 0.1 μM): 118.73%
Transport rate (arginine) (Caco-2 cell monolayer; compound 0.1 μM): 12.6865 ± 0.2964 nmol/min
Percentage (arginine transport, control = 100) (Caco-2 cell monolayer; compound 1 μM): 97.06%
Transport rate (arginine) (Caco-2 cell monolayer; compound 1 μM): 10.3711 ± 0.6574 nmol/min
Percentage (glucose transport, control = 100) (Caco2 cell monolayer; compound 0.01 μM): 141.12%
Transport rate (glucose) (Caco2 cell monolayer; compound 0.01 μM): 3.0783 ± 0.9550 nmol/min
Percentage (glucose transport, control = 100) (Caco2 cell monolayer; compound 0.1 μM): 153.80%
Transport rate (glucose) (Caco2 cell monolayer; compound 0.1 μM): 3.3551 ± 0.3248 nmol/min
Percentage (glucose transport, control = 100) (Caco2 cell monolayer; compound 1 μM): 150.65%
Transport rate (glucose) (Caco2 cell monolayer; compound 1 μM): 3.2862 ± 0.3429 nmol/min

CC(C)=CCC[C@](C)(O[C@@H]1O[C@H](CO[C@@H]2O[C@H](CO)[C@@H](O)[C@H](O)[C@H]2O)[C@@H](O)[C@H](O)[C@H]1O)[C@H]1CC[C@]2(C)[C@@H]1[C@H](O)C[C@@H]1[C@@]3(C)CC[C@H](O[C@@H]4O[C@H](CO)[C@@H](O)[C@H](O)[C@H]4O[C@@H]4O[C@H](CO)[C@@H](O)[C@H](O)[C@H]4O)C(C)(C)[C@@H]3CC[C@]12C [Rb1, ginsenoside Rb1]
Percentage (folate uptake, control = 100) (Caco2 cells): 108.72%
folate uptake versus non-treated control (in words, FIG. 5) (Caco2 cells): increased folate uptake
Transport rate (folate uptake) (Caco2 cells): 1.8710 ± 0.0320 pmol/mg/min
Percentage (arginine transport, control = 100) (Caco-2 cell monolayer; compound 0.01 μM): 90.30%
Transport rate (arginine) (Caco-2 cell monolayer; compound 0.01 μM): 9.6487 ± 0.9377 nmol/min
Percentage (arginine transport, control = 100) (Caco-2 cell monolayer; compound 0.1 μM): 111.08%
Transport rate (arginine) (Caco-2 cell monolayer; compound 0.1 μM): 11.8699 ± 1.9300 nmol/min
Percentage (arginine transport, control = 100) (Caco-2 cell monolayer; compound 1 μM): 151.12%
Transport rate (arginine) (Caco-2 cell monolayer; compound 1 μM): 16.1484 ± 0.6228 nmol/min
Percentage (glucose transport, control = 100) (Caco2 cell monolayer; compound 0.01 μM): 102.26%
Transport rate (glucose) (Caco2 cell monolayer; compound 0.01 μM): 2.2306 ± 0.1034 nmol/min
Percentage (glucose transport, control = 100) (Caco2 cell monolayer; compound 0.1 μM): 128.85%
glucose transport rate (in words, FIG. 1) (Caco2 cell monolayer; compound 0.1 μM to 5 μM): increased
Transport rate (glucose) (Caco2 cell monolayer; compound 0.1 μM): 2.8107 ± 0.1982 nmol/min
Percentage (glucose transport, control = 100) (Caco2 cell monolayer; compound 1 μM): 157.01%
Transport rate (glucose) (Caco2 cell monolayer; compound 1 μM): 3.4250 ± 0.4805 nmol/min

CC(C)=CCC[C@](C)(O)[C@H]1CC[C@]2(C)[C@@H]1[C@H](O)C[C@@H]1[C@@]3(C)CC[C@H](O)C(C)(C)[C@@H]3[C@@H](O)C[C@]12C [Rga, 20(S)-protopanaxatriol]
Percentage (arginine transport, control = 100) (Caco-2 cell monolayer; compound 0.01 μM): 118.16%
Transport rate (arginine) (Caco-2 cell monolayer; compound 0.01 μM): 12.6265 ± 0.9875 nmol/min
Percentage (arginine transport, control = 100) (Caco-2 cell monolayer; compound 0.1 μM): 100.66%
Transport rate (arginine) (Caco-2 cell monolayer; compound 0.1 μM): 10.7555 ± 0.4532 nmol/min
Percentage (arginine transport, control = 100) (Caco-2 cell monolayer; compound 1 μM): 95.38%
Transport rate (arginine) (Caco-2 cell monolayer; compound 1 μM): 10.1920 ± 1.2390 nmol/min
Percentage (glucose transport, control = 100) (Caco2 cell monolayer; compound 0.01 μM): 116.69%
Transport rate (glucose) (Caco2 cell monolayer; compound 0.01 μM): 2.5454 ± 0.7808 nmol/min
Percentage (glucose transport, control = 100) (Caco2 cell monolayer; compound 0.1 μM): 167.15%
Transport rate (glucose) (Caco2 cell monolayer; compound 0.1 μM): 3.6462 ± 0.4105 nmol/min
Percentage (glucose transport, control = 100) (Caco2 cell monolayer; compound 1 μM): 104.01%
Transport rate (glucose) (Caco2 cell monolayer; compound 1 μM): 2.2689 ± 0.2598 nmol/min

CC(C)=CCC[C@](C)(O)C1CC[C@]2(C)C1C(O)CC1[C@@]3(C)CCC(O)C(C)(C)C3C(OC3OC(CO)C(O)C(O)C3O)C[C@]12C (some centres unmarked) [Rh1, ginsenoside Rh1]
Percentage (folate uptake, control = 100) (Caco2 cells): 49.36%
folate uptake versus non-treated control (in words, FIG. 5) (Caco2 cells): decreased
Transport rate (folate uptake) (Caco2 cells): 0.8494 ± 0.453 pmol/mg/min
Percentage (arginine transport, control = 100) (Caco-2 cell monolayer; compound 0.01 μM): 105.56%
Transport rate (arginine) (Caco-2 cell monolayer; compound 0.01 μM): 11.2792 ± 0.7768 nmol/min
Percentage (arginine transport, control = 100) (Caco-2 cell monolayer; compound 0.1 μM): 109.13%
Transport rate (arginine) (Caco-2 cell monolayer; compound 0.1 μM): 11.6615 ± 0.8085 nmol/min
Percentage (arginine transport, control = 100) (Caco-2 cell monolayer; compound 1 μM): 134.02%
Transport rate (arginine) (Caco-2 cell monolayer; compound 1 μM): 14.3209 ± 0.7418 nmol/min
effect on glucose absorption (in words) (Caco2 cell monolayer): inhibitory effect
Percentage (glucose transport, control = 100) (Caco2 cell monolayer; compound 0.01 μM): 62.20%
Transport rate (glucose) (Caco2 cell monolayer; compound 0.01 μM): 1.3568 ± 0.1090 nmol/min
Percentage (glucose transport, control = 100) (Caco2 cell monolayer; compound 0.1 μM): 74.86%
Transport rate (glucose) (Caco2 cell monolayer; compound 0.1 μM): 1.6329 ± 0.1976 nmol/min
Percentage (glucose transport, control = 100) (Caco2 cell monolayer; compound 1 μM): 61.02%
Transport rate (glucose) (Caco2 cell monolayer; compound 1 μM): 1.3310 ± 0.8356 nmol/min
